Experimental data taken from US20140170199A1, “PARASITICIDAL COMBINATION COMPRISING INDOXACARB AND DELTAMETHRIN” (priority 2011, published 2014).

Tests used:
[1] = tested on: voltage-dependent sodium channels expressed in DUM neurons; assay: Whole-cell patch-clamp of voltage-dependent inward sodium current in isolated DUM neuron cell bodies; type: cell-based, cockroaches (Periplaneta Americana)
Description: Experiments were performed on dorsal unpaired median (DUM) neuron cell bodies (Grolleau and Lapied (2000), J. Exp. Biol., 203, 1633-1648) isolated from the dorsal midline of the terminal abdominal ganglion of adult male cockroaches (Periplaneta Americana) taken from a stock colony, maintained at 29° C. with a photoperiod of 12 hours light:12 hours dark.
Adult male cockroaches were immobilised dorsal-side up on a dissection dish. The dorsal cuticle, gut and some dorso-longitudinal muscles were removed, to allow access to the ventral nerve cord. The abdominal nerve cord and its terminal abdominal ganglion (TAG), carefully dissected under a binocular microscope, were placed in normal saline. Isolation of adult DUM neuron cell bodies was performed under sterile conditions using enzymatic digestion and mechanical dissociation of the median part of the TAG (Lapied et al. (1989), J. Exp. Biol., 144, 535-549).
Ganglia were excised and incubated for 35 min at 29° C. in cockroach saline supplemented with 1.5 mg/ml collagenase (type I, Worthington, Lakewood, N.J.). After thoroughly washing off the enzyme, ganglia were mechanically dissociated by gentle repeated suctions through fire-polished Pasteur pipettes. Then, the isolated DUM neuron cell bodies were maintained at 29° C. for 24 hours before experiments are carried out.
Isolated neuronal cell bodies were used for electrophysiological studies. […] A total number of six different isolated cell bodies (six replicates) were used for each experiment.
Deltamethrin and DCJW (IN-JT333), stock solutions (100 mM and 10 mM, respectively) were prepared in dimethylsulphoxide (DMSO, Sigma Chemical, France). Final dilutions contained a maximum of 0.1% DMSO.
Deltamethrin and DCJW, prepared in cockroach saline, were applied separately by a gravity perfusion system onto isolated cell body maintained in short-term culture.
Experiments were carried out at room temperature (20° C.).
The patch-clamp technique in the whole-cell recording configuration (voltage-clamp condition) was used to record voltage-dependent inward sodium current. […]
For each time point, relative sodium current amplitudes are expressed as means±standard errors of the mean (SEM) (table 2). […]
In addition to the concomitant application of deltamethrin and DCJW, the effect of the mixture DCJW (10^−7M) and deltamethrin (10^−5 M) on DUM neuron was assessed after a pre-treatment of the cell body by deltamethrin (10^−5 M) for 5 minutes. […]
As in Example 2, for each time point, relative sodium current amplitudes were expressed as means±standard errors of the mean (SEM). […]

[2] = tested on: Rhipicephalus sanguineus ticks; assay: Tick control on dogs (experimental infestation, tick counts and efficacy); type: in vivo; set-up: Tick efficacies, arithmetic mean / Tick efficacies, geometric mean: concentration or dose not given beside the values
Description: The SCALIBOR® collar was administered to dogs according to the instructions in the Product leaflet. The topical formulation of indoxacarb was administered to dogs in Groups 3 and 4 according to the dose table below:
A 4% deltamethrin-impregnated collar (SCALIBOR®, Merck Animal Health) is used to protect dogs from the bites of sand flies (Phlebotomus sp.), mosquitoes (Culex sp.), and ticks for up to six months with high persistent efficacy. Immediate efficacy of the collar against fleas is known to be inadequate.
The study was conducted on four groups of eight dogs each. • Group 1: Negative control. • Group 2: Dogs were fitted with the Scalibor® collar on Day 0. • Group 3: Dogs were treated with a topical formulation of indoxacarb on Days 0, 30, 60, 90, 120, 150, and 180 (once a month for 6 months). • Group 4: Dogs were fitted with the Scalibor® collar (4% deltamethrin) on Day 0 and treated with a topical formulation of indoxacarb on Days 0, 30, 60, 90, 120, 150, and 180 (once a month for 6 months). Dogs were experimentally infested with 100 fleas and 50 ticks two days before treatment (Day 0) and then on various days throughout the study.
Efficacy against ticks and fleas was calculated for each treatment group at each assessment day according to the formulas given below. Due to the fact that small and even zero tick and flea counts were recorded, it was expected that the tick and flea counts would not follow a normal distribution. It was therefore decided that the primary efficacy calculations would be based on geometric means rather than arithmetic means. The calculations were based on the geometric means of the tick or flea (count+1) data. One (1) was subsequently subtracted from the result to obtain a meaningful value for the geometric mean of each treatment group. Efficacy calculations based on arithmetic means were, however, also reported on.
Percent efficacy against ticks was calculated as follows:
Efficacy(%)=100×(Gmc−Gmt)/Gmc, where:
Gmc=Geometric or arithmetic mean number of live ticks (categories 1-3) on dogs in the control group (Group 1) at a specific time point. Gmt=Geometric or arithmetic mean number of live ticks (categories 1-3; immediate Day+2 efficacy) and dead attached engorged ticks (category 6; residual >Day+2 efficacies) on dogs in the treatment groups (Groups 2, 3 & 4) at a specific time point.

[3] = DCJW 10^-7 M alone, after 20 minutes
[4] = Day +2 (immediate), vs negative control
[5] = Day +2, count ~48 h after treatment or infestation
[6] = Day +16, count ~48 h after infestation
[7] = Day +30, count ~48 h after infestation
[8] = Day +44, count ~48 h after infestation
[9] = Day +72, count ~48 h after infestation
[10] = Day +100, count ~48 h after infestation
[11] = Day +128, count ~48 h after infestation
[12] = Day +156, count ~48 h after infestation
[13] = Day +170, count ~48 h after infestation
[14] = Day +184, count ~48 h after infestation

COC(=O)C12Cc3cc(Cl)ccc3C1=NN(C(=O)Nc1ccc(OC(F)(F)F)cc1)CO2 (stereo not shown) [DCJW, methyl 7-chloro-2,5-dihydro-2-[[[4-(trifluoromethoxy)phenyl]amino]carbonyl]indeno-[1,2-e][1,3,4]oxadiazine-4a(3H)-carboxylate]
Percentage of inhibition of the sodium current amplitude [1, 3]: 40.7% | Sodium current amplitude (relative to control current 100%) [1, 3]: 59.3%

CC1(C)[C@H](C(=O)O[C@H](C#N)c2cccc(Oc3ccccc3)c2)[C@@H]1C=C(Br)Br [deltamethrin, (S)-α-Cyano-3-phenoxybenzyl-(1R,3R)-3-(2,2-dibromovinyl)-2,2-dimethylcyclopropanecarboxylate]
Tick efficacies, geometric mean [2, 4]: 76.9%

N#Cc1ccc(CC(=NNC(=O)Nc2ccc(OC(F)(F)F)cc2)c2cccc(C(F)(F)F)c2)cc1 (mixture of isomers) [metaflumizone E/Z, (EZ)-2012-(4-cyanophenyl)-1-(a,a,a-trifluoro-mtolypethylidene]-4 (trifluoromethoxy) carbanilohydrazide]
Effect on the sodium current amplitude ([1]; bath application at different concentrations (10^-10 to 10^-5 M), alone): produced a reduction of the sodium current amplitude | Dose dependence of the reduction of sodium current amplitude ([1]; different concentrations (10^-10 to 10^-5 M), alone): not dose-dependent

COC(=O)N(C(=O)N1CO[C@@]2(C(=O)OC)Cc3cc(Cl)ccc3C2=N1)c1ccc(OC(F)(F)F)cc1 [indoxacarb, (5)-methyl 7-chloro-2,5-dihydro-2-[[(methoxycarbonyl) [4-(trifluoromethoxy)phenyl]amino]carbonyl]indeno[1,2-e][1,3,4]oxadiazine-4a(3H)-carboxylate]
Tick efficacies, arithmetic mean [2, 4]: 13.3% | Tick efficacies, geometric mean [2, 4]: 15.5% | Tick counts, arithmetic mean [2, 5]: 18.8 | Tick counts, geometric mean [2, 5]: 18.1^4 | Immediate or persistent effectiveness against R. sanguineus ticks ([2]; Day +2 to Day 184): No immediate or persistent effectiveness | Tick counts, arithmetic mean [2, 6]: 13.8 | Tick counts, geometric mean [2, 6]: 12.1^4 | Tick efficacies, arithmetic mean ([2]; Day +16, vs negative control): 34.3% | Tick efficacies, geometric mean ([2]; Day +16, vs negative control): 37.4% | Tick counts, arithmetic mean [2, 7]: 14.0 | Tick counts, geometric mean [2, 7]: 9.8^2,4 | Tick efficacies, arithmetic mean ([2]; Day +30, vs negative control): 42.0% | Tick efficacies, geometric mean ([2]; Day +30, vs negative control): 58.7% | Tick counts, arithmetic mean [2, 8]: 18.4 | Tick counts, geometric mean [2, 8]: 18.0^4 | Tick efficacies, arithmetic mean ([2]; Day +44, vs negative control): 25.0% | Tick efficacies, geometric mean ([2]; Day +44, vs negative control): 25.8% | Tick counts, arithmetic mean [2, 9]: 24.5 | Tick counts, geometric mean [2, 9]: 23.5^4 | Tick efficacies, arithmetic mean ([2]; Day +72, vs negative control): 20.0% | Tick efficacies, geometric mean ([2]; Day +72, vs negative control): 20.9% | Tick counts, arithmetic mean [2, 10]: 18.3 | Tick counts, geometric mean [2, 10]: 16.0^4 | Tick efficacies, arithmetic mean ([2]; Day +100, vs negative control): 35.4% | Tick efficacies, geometric mean ([2]; Day +100, vs negative control): 40.9% | Tick counts, arithmetic mean [2, 11]: 24.5 | Tick counts, geometric mean [2, 11]: 22.6^4 | Tick efficacies, arithmetic mean ([2]; Day +128, vs negative control): 12.1% | Tick efficacies, geometric mean ([2]; Day +128, vs negative control): 16.0% | Tick counts, arithmetic mean [2, 12]: 25.4 | Tick counts, geometric mean [2, 12]: 25.0^4 | Tick efficacies, arithmetic mean ([2]; Day +156, vs negative control): 12.1% | Tick efficacies, geometric mean ([2]; Day +156, vs negative control): 12.2% | Tick counts, arithmetic mean [2, 13]: 21.1 | Tick counts, geometric mean [2, 13]: 19.9^4 | Tick efficacies, arithmetic mean ([2]; Day +170, vs negative control): 18.4% | Tick efficacies, geometric mean ([2]; Day +170, vs negative control): 20.0% | Tick counts, arithmetic mean [2, 14]: 18.3 | Tick counts, geometric mean [2, 14]: 17.1^4 | Tick efficacies, arithmetic mean ([2]; Day +184, vs negative control): 25.1% | Tick efficacies, geometric mean ([2]; Day +184, vs negative control): 28.3%
